Measurements from patent US7132504B2, “Hepatitis C virus inhibitors” (Bristol-Myers Squibb Company, priority 2003, dated 2006).

Target: T1, NS3/4A protease complex, H77 strain (Hepatitis C virus genotype 1a, UniProt P27958, C1454S/C1711G)
T1 construct: DNA encoding the recombinant HCV NS3/4A protease complex (amino acids 1027 to 1711) for these strains; inferred from pET21b vector and Ni-NTA purification; made in house; host or cells: Escherichia coli BL21 (DE3), pET21b
Experiment: Recombinant HCV NS3/4A protease complex FRET peptide assay, H77 strain
Type: biochemical, HCV genotype 1a (H77)
Text: The purpose of this in vitro assay was to measure the inhibition of HCV NS3 protease complexes, derived from the BMS strain, H77 strain or J416S strain, as described below, by compounds of the present invention. This assay provides an indication of how effective compounds of the present invention would be in inhibiting HCV proteolytic activity.
Serum from an HCV-infected patient was obtained from Dr. T. Wright, San Francisco Hospital. An engineered full-length cDNA (compliment deoxyribonucleic acid) template of the HCV genome (BMS strain) was constructed from DNA fragments obtained by reverse transcription-PCR (RT-PCR) of serum RNA (ribonucleic acid) and using primers selected on the basis of homology between other genotype 1a strains. From the determination of the entire genome sequence, a genotype 1a was assigned to the HCV isolate according to the classification of Simmonds et al. (See P Simmonds, K A Rose, S Graham, S W Chan, F McOmish, B C Dow, E A Follett, P L Yap and H Marsden, J. Clin. Microbiol., 31(6), 1493–1503 (1993)). […]

T1 sequence (P27958 1027-1711 C1454S/C1711G, one chain of several): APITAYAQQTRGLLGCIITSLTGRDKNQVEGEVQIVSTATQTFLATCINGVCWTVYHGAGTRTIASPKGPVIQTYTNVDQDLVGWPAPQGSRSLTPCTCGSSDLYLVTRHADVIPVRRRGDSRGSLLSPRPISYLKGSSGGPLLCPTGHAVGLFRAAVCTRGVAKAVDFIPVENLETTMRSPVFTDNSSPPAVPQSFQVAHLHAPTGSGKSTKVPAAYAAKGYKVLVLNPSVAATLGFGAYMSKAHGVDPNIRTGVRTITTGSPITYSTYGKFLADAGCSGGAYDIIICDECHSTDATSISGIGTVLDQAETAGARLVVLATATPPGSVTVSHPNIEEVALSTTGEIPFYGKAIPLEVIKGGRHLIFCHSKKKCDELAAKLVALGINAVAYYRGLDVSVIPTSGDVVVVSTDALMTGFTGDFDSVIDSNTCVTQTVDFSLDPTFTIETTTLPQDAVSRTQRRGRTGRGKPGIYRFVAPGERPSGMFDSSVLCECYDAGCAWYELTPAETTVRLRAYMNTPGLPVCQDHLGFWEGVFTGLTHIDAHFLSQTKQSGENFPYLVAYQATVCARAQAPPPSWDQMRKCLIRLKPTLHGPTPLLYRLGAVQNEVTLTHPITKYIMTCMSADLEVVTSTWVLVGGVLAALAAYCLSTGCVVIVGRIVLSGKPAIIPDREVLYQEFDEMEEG

`C=CC1C[C@]1(NC(=O)[C@@H]1C[C@@H](Oc2cc(-c3ccccc3)nc3cc(OC)ccc23)CN1C(=O)[C@@H](NC(=O)OC)C(C)(C)C)C(=O)NS(=O)(=O)N(C)Cc1ccccc1` (stereo partly shown) [Compound 9] was tested, and the IC50 was 62 nM.
